The text below walks through data of patent publication US5464796A, “7-isoindolinyl-quinolone-carboxylic acid derivatives” (Bayer Aktiengesellschaft, priority 1991, dated 1995).

Each structure is given as a SMILES string. Values after ≈ are worked out from the molar mass of the structure shown.

The term MIC denotes the lowest concentration found to suppress growth. A high value points to a need for much substance.

What all share (assay): MIC by series dilution on Iso-Sensitest agar
The subject of one assay is E. coli. The assay is classed as cell-based, Escherichia coli. Particulars: 37° C., about 20 hours, 10^4 colony-forming particles per spot; for MIC: Escherichia coli, 20 h. As for the experimental part: (§1) The minimum inhibitory concentrations (MIC) were determined by series dilution methods on Iso-Sensitest agar (Oxoid). A series of agar plates each containing active compound concentrations decreasing by twofold dilution each time were prepared for each test substance. The agar plates were inoculated with a Multipoint inoculator (Denley). Overnight cultures of the pathogens, which were first diluted so that each inoculum spot contained about 10^4 colony-forming particles, were used for the inoculation. The inoculated agar plates were incubated at 37° C. and the germ growth was read off after about 20 hours. The MIC value (μg/ml) indicates the lowest active compound concentration at which no growth was to be detected with the naked eye.
(§2) The MIC values of some of the compounds according to the invention are shown in the following table in comparison with 7-(4-amino-1,3-dihydro-isoindol-2-yl)-1-cyclopropyl-6,8-difluoro-1,4-dihydro-4-oxo-3-quinolinecarboxylic acid (EP 343,560, Example 2).

The next assay concerns Staphyloccus aureus. It is filed as cell-based, Staphylococcus aureus. Conditions: 37° C., about 20 hours, 10^4 colony-forming particles per spot; for MIC: Staphylococcus aureus, 20 h. As for the experimental part:
as §1, §2

For a further assay, the system named is Morganella morg. The assay is classed as cell-based. Conditions: strain 932, 37° C., about 20 hours, 10^4 colony-forming particles per spot; for MIC: Morganella, 20 h. As for the experimental part: as §1, §2
The next assay relates to Klebsiella sp. It is filed as cell-based. Particulars: strain 8085, 37° C., about 20 hours, 10^4 colony-forming particles per spot; for MIC: Klebsiella. As for the experimental part: as §1, §2
A further assay concerns Providencia spp. It is filed as cell-based. Conditions: strain 12012, 37° C., about 20 hours, 10^4 colony-forming particles per spot; for MIC: Providencia, 20 h. As for the experimental part: as §1, §2
The test system of another assay is Pseudomonas aeruginasa. It is filed as cell-based, Pseudomonas aeruginosa. Conditions: strain Walter, 37° C., about 20 hours, 10^4 colony-forming particles per spot; for MIC: Pseudomonas, 20 h. As for the experimental part: as §1, §2
The test system of another assay is Enterocococus faecalis. The assay is classed as cell-based, Enterococcus faecalis. Particulars: 37° C., about 20 hours, 10^4 colony-forming particles per spot; for MIC: Enterococcus faecalis, 20 h. As for the experimental part:
as §1, §2

As to `CNC1C=CC(C)C2CN(c3c(F)cc4c(=O)c(C(=O)O)cn(C5CC5)c4c3F)CC12` (centres unmarked) [Example 6], the MIC in the assay with E. coli (strain 455/7) is 1 µg/mL (≈ 2.33 µM); with E. coli (strain Neumann), 0.03 µg/mL (≈ 0.0699 µM); against Staphyloccus aureus (strain 133), 0.02 µg/mL (≈ 0.0466 µM); with Staphyloccus aureus (strain 1756), 0.02 µg/mL (≈ 0.0466 µM); against Morganella morg., 0.06 µg/mL (≈ 0.14 µM); with Klebsiella sp. it was 0.06 µg/mL (≈ 0.14 µM). Also, the MIC with Providencia spp. amounted to 0.13 µg/mL (≈ 0.303 µM); against Pseudomonas aeruginasa, 2 µg/mL (≈ 4.66 µM); in the assay on Enterocococus faecalis (strain 9790), 0.06 µg/mL (≈ 0.14 µM); with Enterocococus faecalis (strain 27101), 0.06 µg/mL (≈ 0.14 µM).

`CNC1C=CCC2CN(c3c(F)cc4c(=O)c(C(=O)O)cn(C5CC5)c4c3F)CC21` (centres unmarked) [Example 1, 1-cyclopropyl-6,8-difluoro-1,4-dihydro-7-(4-methylamino-1,3,3a,4,7,7a-hexahydro-isoindol-2-yl)-4-oxo-3-quinolinecarboxylic acid]: the MIC in the assay with E. coli (strain 455/7) is 0.5 µg/mL (≈ 1.2 µM); with E. coli (strain Neumann) it was 0.02 µg/mL (≈ 0.0481 µM); in the assay on Staphyloccus aureus (strain 133), 0.02 µg/mL (≈ 0.0481 µM); against Staphyloccus aureus (strain 1756), 0.02 µg/mL (≈ 0.0481 µM); against Morganella morg., 0.06 µg/mL (≈ 0.144 µM); against Klebsiella sp., 0.06 µg/mL (≈ 0.144 µM). Besides, the MIC was 0.06 µg/mL (≈ 0.144 µM) with Providencia spp., 1 µg/mL (≈ 2.41 µM) against Pseudomonas aeruginasa, 0.03 µg/mL (≈ 0.0722 µM) against Enterocococus faecalis (strain 9790) and 0.03 µg/mL (≈ 0.0722 µM) against Enterocococus faecalis (strain 27101).

`CNC1C=CCC2CN(c3c(F)cc4c(=O)c(C(=O)O)cn(C5CC5)c4c3Cl)CC21` (centres unmarked) [Example 3, 8-chloro-1-cyclopropyl-6-fluoro-1,4-dihydro-7-(4-methylamino-1,3,3a,4,7,7a-hexahydro-isoindol-2-yl)-4-oxo-3-quinolinecarboxylic acid]: the MIC against E. coli (strain 455/7) was 0.25 µg/mL (≈ 0.579 µM); against E. coli (strain Neumann) it was 0.02 µg/mL (≈ 0.0463 µM); against Staphyloccus aureus (strain 133) it was 0.02 µg/mL (≈ 0.0463 µM); in the assay with Staphyloccus aureus (strain 1756) it was 0.02 µg/mL (≈ 0.0463 µM); in the assay with Morganella morg., 0.03 µg/mL (≈ 0.0695 µM); against Klebsiella sp. it was 0.03 µg/mL (≈ 0.0695 µM). The minimum inhibitory concentration (MIC) against Providencia spp. is 0.03 µg/mL (≈ 0.0695 µM); in the assay on Pseudomonas aeruginasa, 0.5 µg/mL (≈ 1.16 µM); with Enterocococus faecalis (strain 9790), 0.02 µg/mL (≈ 0.0463 µM); in the assay on Enterocococus faecalis (strain 27101), 0.02 µg/mL (≈ 0.0463 µM).

In the case of `CNC1C=CCC2CN(c3cc4c(c(C)c3F)c(=O)c(C(=O)O)cn4C3CC3)CC21` (centres unmarked) [Example 4], the MIC in the assay with E. coli (strain 455/7) is 16 µg/mL (≈ 38.9 µM); with E. coli (strain Neumann), 0.13 µg/mL (≈ 0.316 µM); in the assay with Staphyloccus aureus (strain 133) it was 0.03 µg/mL (≈ 0.0729 µM); against Staphyloccus aureus (strain 1756) it was 0.03 µg/mL (≈ 0.0729 µM); against Morganella morg. it was 0.5 µg/mL (≈ 1.22 µM); against Klebsiella sp. it was 0.25 µg/mL (≈ 0.608 µM). The MIC came out at 0.25 µg/mL (≈ 0.608 µM) in the assay with Providencia spp., 16 µg/mL (≈ 38.9 µM) in the assay on Pseudomonas aeruginasa, 0.13 µg/mL (≈ 0.316 µM) against Enterocococus faecalis (strain 9790) and 0.13 µg/mL (≈ 0.316 µM) against Enterocococus faecalis (strain 27101).

For `CNC1C=CC(C)C2CN(c3cc4c(cc3F)c(=O)c(C(=O)O)cn4C3CC3)CC12` (centres unmarked) [Example 5], the MIC in the assay on E. coli (strain 455/7) came to 2 µg/mL (≈ 4.86 µM); against E. coli (strain Neumann), 0.06 µg/mL (≈ 0.146 µM); with Staphyloccus aureus (strain 133) it was 0.02 µg/mL (≈ 0.0486 µM); in the assay with Staphyloccus aureus (strain 1756), 0.02 µg/mL (≈ 0.0486 µM); against Morganella morg., 0.06 µg/mL (≈ 0.146 µM); in the assay on Klebsiella sp. it was 0.06 µg/mL (≈ 0.146 µM). The MIC against Providencia spp. stood at 0.13 µg/mL (≈ 0.316 µM); against Pseudomonas aeruginasa it was 2 µg/mL (≈ 4.86 µM); against Enterocococus faecalis (strain 9790) it was 0.03 µg/mL (≈ 0.0729 µM); with Enterocococus faecalis (strain 27101) it was 0.03 µg/mL (≈ 0.0729 µM).

Consider `CNC1C=CCC2CN(c3c(F)cc4c(=O)c(C(=O)O)cn(C5CC5)c4c3Cl)CC21` (centres unmarked) [9 B], for which the MIC values is 0,5 μg/ml against E. coli (strain 455/7); 0,02 μg/ml in the assay on E. coli (strain Neumann); 0,03 μg/ml against Staphyloccus aureus (strain 133); 0,03 μg/ml against Staphyloccus aureus (strain 1756); 0,06 μg/ml in the assay with Morganella morg.; 0,03 μg/ml against Klebsiella sp.. Moreover, the MIC values was 0,06 μg/ml with Providencia spp., 1 µg/mL (≈ 2.32 µM) with Pseudomonas aeruginasa, 0,02 μg/ml against Enterocococus faecalis (strain 9790) and 0,03 μg/ml in the assay with Enterocococus faecalis (strain 27101).

Regarding `CNC1C=CCC2CN(c3nc4c(cc3F)c(=O)c(C(=O)O)cn4C3CC3)CC21.Cl` (centres unmarked) [Example 10, 1-cyclopropyl-6-fluoro-1,4-dihydro-7-(4-methylamino-1,3,3a,4,7,7a-hexahydroisoindol-2-yl)-4-oxo-1,8-naphthyridine-3-carboxylic acid hydrochloride], the MIC in the assay with E. coli (strain 455/7) was found to be 8 µg/mL; with E. coli (strain Neumann), 0.06 µg/mL; in the assay on Staphyloccus aureus (strain 133), 0.06 µg/mL; against Staphyloccus aureus (strain 1756) it was 0.06 µg/mL; in the assay on Morganella morg., 0.25 µg/mL; with Klebsiella sp., 0.13 µg/mL. Also, the minimal inhibitory concentration (MIC) came to 0.25 µg/mL against Providencia spp., 4 µg/mL in the assay on Pseudomonas aeruginasa, 0.25 µg/mL in the assay on Enterocococus faecalis (strain 9790) and 0.25 µg/mL against Enterocococus faecalis (strain 27101).

As for `Nc1cccc2c1CN(c1c(F)cc3c(=O)c(C(=O)O)cn(C4CC4)c3c1F)C2` [Ref, 7-(4-amino-1,3-dihydro-isoindol-2-yl)-1-cyclopropyl-6,8-difluoro-1,4-dihydro-4-oxo-3-quinolinecarboxylic acid, reference compound], the MIC in the assay with E. coli (strain 455/7) turned out to be 128 µg/mL (≈ 322 µM); against E. coli (strain Neumann), 0.5 µg/mL (≈ 1.26 µM); against Staphyloccus aureus (strain 133) it was 0.03 µg/mL (≈ 0.0755 µM); against Staphyloccus aureus (strain 1756) it was 0.03 µg/mL (≈ 0.0755 µM); against Morganella morg., 1 µg/mL (≈ 2.52 µM); against Klebsiella sp. it was 4 µg/mL (≈ 10.1 µM). Also, the MIC against Providencia spp. worked out at 1 µg/mL (≈ 2.52 µM); in the assay on Pseudomonas aeruginasa, 128 µg/mL (≈ 322 µM); in the assay on Enterocococus faecalis (strain 9790) it was 1 µg/mL (≈ 2.52 µM); in the assay on Enterocococus faecalis (strain 27101) it was 0.5 µg/mL (≈ 1.26 µM).

As to `CNC1C=CCC2CN(c3cc4c(cc3F)c(=O)c(C(=O)O)cn4C3CC3)CC21` (centres unmarked) [Example 2], the MIC in the assay on E. coli (strain 455/7) is 2 µg/mL (≈ 5.03 µM); in the assay with E. coli (strain Neumann), 0.03 µg/mL (≈ 0.0755 µM); in the assay with Staphyloccus aureus (strain 133), 0.02 µg/mL (≈ 0.0503 µM); against Staphyloccus aureus (strain 1756), 0.02 µg/mL (≈ 0.0503 µM); against Providencia spp., 0.13 µg/mL (≈ 0.327 µM); against Pseudomonas aeruginasa, 2 µg/mL (≈ 5.03 µM). The MIC with Enterocococus faecalis (strain 9790) and with Enterocococus faecalis (strain 27101) was 0.06 µg/mL (≈ 0.151 µM) each time.

Regarding `CNC1C=CCC2CN(c3nc4c(cc3F)c(=O)c(C(=O)O)cn4-c3ccc(F)cc3F)CC21` (centres unmarked) [11 B], the MIC against E. coli (strain 455/7) came to 16 µg/mL (≈ 34 µM); with E. coli (strain Neumann) it was 0.25 µg/mL (≈ 0.531 µM); against Staphyloccus aureus (strain 133) it was 0.06 µg/mL (≈ 0.128 µM); in the assay on Staphyloccus aureus (strain 1756) it was 0.06 µg/mL (≈ 0.128 µM); against Morganella morg., 0.5 µg/mL (≈ 1.06 µM); with Klebsiella sp., 0.5 µg/mL (≈ 1.06 µM). Moreover, the minimum inhibitory concentration (MIC) stood at 0.5 µg/mL (≈ 1.06 µM) against Providencia spp., 8 µg/mL (≈ 17 µM) with Pseudomonas aeruginasa, 0.25 µg/mL (≈ 0.531 µM) against Enterocococus faecalis (strain 9790) and 0.25 µg/mL (≈ 0.531 µM) in the assay on Enterocococus faecalis (strain 27101).
